Measured values from US9738607B2, “Scalable process for the preparation of Sorafenib tosylate ethanol solvate and Sorafenib tosylate form III” (F.I.S.—FABBRICA ITALIANA SINTETICI S.P.A, priority 2015, dated 2017).

Key:
[1] = Stability study of Sorafenib hemi-tosylate monohydrate under four humidity/temperature conditions, XRPD; format: physicochemical
Protocol: Four different humidity/temperature conditions were selected for this study: • Humidity (60% RH) at room temperature, • High humidity (94% RH) at room temperature, • Accelerated conditions of ICH guidelines (40° C.-70% RH), • 80° C. under vacuum.
Karl-Fischer and DSC/TGA analyses confirmed that Sorafenib hemi-tosylate is a monohydrate (water content 3.9% for KF and 2.7% for TGA—3.1% calc. for a monohydrate). This form was previously characterized in WO2009/092070 but, as Karl-Fischer and TGA were not performed, the presence of water in this crystalline form was not mentioned. […] However, at 80° C. under vacuum, traces of SORAFENIB free base were detected after almost three months.

[2] = Stability studies of Sorafenib tosylate form III (humidity/temperature storage); format: physicochemical; details: form III obtained from methanol solvate
Protocol: Stability studies of the free Sorafenib tosylate form III were already performed. These studies indicate that form III remained stable 3 months under accelerated conditions of ICH guideline (40° C.-70% RH) and less than 7 months at RT under 94% RH, while it remained stable at least 7 month at RT under 60% RH.
As the stability study of Sorafenib tosylate form III was performed with Sorafenib tosylate form III obtained from Sorafenib tosylate methanol solvate, only a minor difference in behavior could be possible with this new solid.

| Structure (SMILES) | time remained stable ([1]; 60% RH at room temperature) | time remained stable ([1]; 70% RH at 40° C.) | time remained stable ([1]; 94% RH at room temperature) | crystalline changes by XRPD ([1]; after 88 days at 80° C. under vacuum) | crystalline changes by XRPD ([1]; after 119 days at 60% RH at room temperature) | crystalline changes by XRPD ([1]; after 119 days at 70% RH at 40° C.) | crystalline changes by XRPD ([1]; after 119 days at 94% RH at room temperature) | time form III remained stable ([2]; RT under 60% RH) | time form III remained stable ([2]; RT under 94% RH) | time form III remained stable ([2]; accelerated conditions of ICH guideline (40° C.-70% RH)) [months] |
| --- | --- | --- | --- | --- | --- | --- | --- | --- | --- | --- |
| CNC(=O)c1cc(Oc2ccc(NC(=O)Nc3ccc(Cl)c(C(F)(F)F)c3)cc2)ccn1.Cc1ccc(S(=O)(=O)O)cc1 [Sorafenib hemi-tosylate] | at least four | at least four | at least four | traces of Sorafenib free base were observed | No crystalline changes were detected | No crystalline changes were detected | No crystalline changes were detected |  |  |  |
| CNC(=O)c1cc(Oc2ccc(NC(=O)Nc3ccc(Cl)c(C(F)(F)F)c3)cc2)ccn1.Cc1ccc(S(=O)(=O)O)cc1 [Sorafenib tosylate form III, 4-[4-({[4-chloro-3-(trifluoromethyl)phenyl]carbamoyl}amino)phenoxy]-N-methylpyridine-2-carboxamide 4-methylbenzenesulfonate (1:1)] |  |  |  |  |  |  |  | at least 7 month | less than 7 months | 3 |
